According to PubChem BioAssay AID1745844 (Carcinogenic Potency Database (CPDB), 2022):

Test system: rodent lifetime carcinogenesis bioassay, tumor incidence TD50
Assay: chronic cancer bioassays in animals – CPDB, compiled studies (AID 1745844)
Conditions: by gavage

ClCC(Cl)CCl
TD50 (mouse, strain B6C3F1, females, site: Harderian gland, lesion: adenoma + adenoma, bilateral, dosed 88 weeks, study length 104 weeks): 7.05 mg/kg/day
TD50 (mouse, strain B6C3F1, females, site: all sites, lesion: histiocytic sarcoma + malignant lymphoma, histiocytic type + malignant lymphoma, mixed type + malignant lymphoma, lymphocytic, dosed 88 weeks, study length 104 weeks): 8.64 mg/kg/day
TD50 (mouse, strain B6C3F1, females, site: all sites, lesion: malignant lymphoma, histiocytic type + malignant lymphoma, mixed type + malignant lymphoma, lymphocytic type + malignant lymph, dosed 88 weeks, study length 104 weeks): 7.08 mg/kg/day
TD50 (mouse, strain B6C3F1, females, site: any site (literature study), lesion: several types, types named in the paper, dosed 88 weeks, study length 104 weeks): 0.806 mg/kg/day
TD50 (mouse, strain B6C3F1, females, site: forestomach + Harderian gland + liver + palate + pharynx + uterus, lesion: squamous-cell carcinoma + squamous-cell papilloma + adenoma + adenoma, bilateral + hepatocellular adenoma + hepatocellular carcino, dosed 88 weeks, study length 104 weeks): 0.826 mg/kg/day
TD50 (mouse, strain B6C3F1, females, site: forestomach, lesion: squamous-cell carcinoma + squamous-cell papilloma, dosed 88 weeks, study length 104 weeks): 0.828 mg/kg/day
TD50 (mouse, strain B6C3F1, females, site: forestomach, lesion: squamous-cell carcinoma, dosed 88 weeks, study length 104 weeks): 0.97 mg/kg/day
TD50 (mouse, strain B6C3F1, females, site: forestomach, lesion: squamous-cell papilloma, dosed 88 weeks, study length 104 weeks): 1.64 mg/kg/day
TD50 (mouse, strain B6C3F1, females, site: liver, lesion: hepatocellular adenoma + hepatoblastoma + hepatocellular carcinoma, dosed 88 weeks, study length 104 weeks): 2.93 mg/kg/day
TD50 (mouse, strain B6C3F1, females, site: liver, lesion: hepatocellular adenoma + hepatocellular carcinoma, dosed 88 weeks, study length 104 weeks): 2.93 mg/kg/day
TD50 (mouse, strain B6C3F1, females, site: liver, lesion: hepatocellular adenoma, dosed 88 weeks, study length 104 weeks): 3.33 mg/kg/day
TD50 (mouse, strain B6C3F1, females, site: liver, lesion: hepatocellular carcinoma, dosed 88 weeks, study length 104 weeks): 28.7 mg/kg/day
TD50 (mouse, strain B6C3F1, females, site: lung, lesion: alveolar/bronchiolar adenoma + alveolar/bronchiolar carcinoma, dosed 88 weeks, study length 104 weeks): 14.3 mg/kg/day
TD50 (mouse, strain B6C3F1, females, site: lung, lesion: alveolar/bronchiolar adenoma, dosed 88 weeks, study length 104 weeks): 14.6 mg/kg/day
TD50 (mouse, strain B6C3F1, females, site: palate + pharynx + tongue, lesion: squamous-cell carcinoma + squamous-cell papilloma, dosed 88 weeks, study length 104 weeks): 47 mg/kg/day
TD50 (mouse, strain B6C3F1, females, site: palate + pharynx, lesion: squamous-cell carcinoma, dosed 88 weeks, study length 104 weeks): 154 mg/kg/day
TD50 (mouse, strain B6C3F1, females, site: uterus, lesion: endometrial stromal polyp, dosed 88 weeks, study length 104 weeks): 22.9 mg/kg/day
TD50 (mouse, strain B6C3F1, females, site: uterus, lesion: endometrium, adenocarcinoma, dosed 88 weeks, study length 104 weeks): 8.47 mg/kg/day
TD50 (mouse, strain B6C3F1, females, site: uterus, lesion: endometrium, adenoma + endometrium, adenocarcinoma, dosed 88 weeks, study length 104 weeks): 6.62 mg/kg/day
TD50 (mouse, strain B6C3F1, females, site: uterus, lesion: endometrium, adenoma, dosed 88 weeks, study length 104 weeks): 34.9 mg/kg/day
TD50 (mouse, strain B6C3F1, males, site: Harderian gland, lesion: adenoma, dosed 90 weeks, study length 104 weeks): 13.7 mg/kg/day
TD50 (mouse, strain B6C3F1, males, site: any site (literature study), lesion: several types, types named in the paper, dosed 90 weeks, study length 104 weeks): 1.06 mg/kg/day
TD50 (mouse, strain B6C3F1, males, site: forestomach + Harderian gland + liver, lesion: squamous-cell carcinoma + squamous-cell papilloma + adenoma + hepatocellular adenoma + hepatocellular carcinoma, dosed 90 weeks, study length 104 weeks): 0.996 mg/kg/day
TD50 (mouse, strain B6C3F1, males, site: forestomach, lesion: squamous-cell carcinoma + squamous-cell papilloma, dosed 90 weeks, study length 104 weeks): 0.928 mg/kg/day
TD50 (mouse, strain B6C3F1, males, site: forestomach, lesion: squamous-cell carcinoma, dosed 90 weeks, study length 104 weeks): 1.34 mg/kg/day
TD50 (mouse, strain B6C3F1, males, site: forestomach, lesion: squamous-cell papilloma, dosed 90 weeks, study length 104 weeks): 1.63 mg/kg/day
TD50 (mouse, strain B6C3F1, males, site: liver, lesion: hepatocellular adenoma + hepatoblastoma + hepatocellular carcinoma, dosed 90 weeks, study length 104 weeks): 2.13 mg/kg/day
TD50 (mouse, strain B6C3F1, males, site: liver, lesion: hepatocellular adenoma + hepatocellular carcinoma, dosed 90 weeks, study length 104 weeks): 2.13 mg/kg/day
TD50 (mouse, strain B6C3F1, males, site: liver, lesion: hepatocellular adenoma, dosed 90 weeks, study length 104 weeks): 2.87 mg/kg/day
TD50 (mouse, strain B6C3F1, males, site: liver, lesion: hepatocellular carcinoma, dosed 90 weeks, study length 104 weeks): 6.28 mg/kg/day
TD50 (mouse, strain B6C3F1, males, site: lung, lesion: alveolar/bronchiolar adenoma + alveolar/bronchiolar carcinoma, dosed 90 weeks, study length 104 weeks): 9.32 mg/kg/day
TD50 (mouse, strain B6C3F1, males, site: lung, lesion: alveolar/bronchiolar adenoma, dosed 90 weeks, study length 104 weeks): 11.2 mg/kg/day
TD50 (mouse, strain B6C3F1, males, site: tongue, lesion: squamous-cell papilloma, dosed 90 weeks, study length 104 weeks): 454 mg/kg/day
TD50 (rat, strain Fischer 344, females, site: Zymbal's gland, lesion: carcinoma, dosed 91 weeks, study length 105 weeks): 59 mg/kg/day
TD50 (rat, strain Fischer 344, females, site: all sites, lesion: mononuclear-cell leukemia, dosed 91 weeks, study length 105 weeks): 7.11 mg/kg/day
TD50 (rat, strain Fischer 344, females, site: any site (literature study), lesion: several types, types named in the paper, dosed 91 weeks, study length 105 weeks): 1.02 mg/kg/day
TD50 (rat, strain Fischer 344, females, site: clitoral gland + forestomach + mammary gland + palate + pharynx + tongue + Zymbal's gland, lesion: adenoma + adenoma, bilateral + carcinoma + carcinoma, bilateral + squamous-cell carcinoma + squamous-cell papilloma + adenocarcinoma, dosed 91 weeks, study length 105 weeks): 1.07 mg/kg/day
TD50 (rat, strain Fischer 344, females, site: clitoral gland, lesion: adenoma + adenoma, bilateral + carcinoma + carcinoma, bilateral, dosed 91 weeks, study length 105 weeks): 3.58 mg/kg/day
TD50 (rat, strain Fischer 344, females, site: clitoral gland, lesion: adenoma + adenoma, bilateral, dosed 91 weeks, study length 105 weeks): 4.04 mg/kg/day
TD50 (rat, strain Fischer 344, females, site: clitoral gland, lesion: carcinoma + carcinoma, bilateral, dosed 91 weeks, study length 105 weeks): 49.5 mg/kg/day
TD50 (rat, strain Fischer 344, females, site: colon + jejunum, lesion: adenocarcinoma, dosed 91 weeks, study length 105 weeks): 78.4 mg/kg/day
TD50 (rat, strain Fischer 344, females, site: forestomach, lesion: squamous-cell carcinoma + squamous-cell papilloma, dosed 91 weeks, study length 105 weeks): 1.64 mg/kg/day
TD50 (rat, strain Fischer 344, females, site: forestomach, lesion: squamous-cell carcinoma, dosed 91 weeks, study length 105 weeks): 7.77 mg/kg/day
TD50 (rat, strain Fischer 344, females, site: forestomach, lesion: squamous-cell papilloma, dosed 91 weeks, study length 105 weeks): 1.94 mg/kg/day
TD50 (rat, strain Fischer 344, females, site: liver, lesion: hepatocellular adenoma + hepatoblastoma + hepatocellular carcinoma, dosed 91 weeks, study length 105 weeks): 81.4 mg/kg/day
TD50 (rat, strain Fischer 344, females, site: mammary gland, lesion: adenocarcinoma + adenoma + fibroadenoma, dosed 91 weeks, study length 105 weeks): 1.98 mg/kg/day
TD50 (rat, strain Fischer 344, females, site: mammary gland, lesion: adenocarcinoma + adenoma, dosed 91 weeks, study length 105 weeks): 5.5 mg/kg/day
TD50 (rat, strain Fischer 344, females, site: mammary gland, lesion: adenocarcinoma, dosed 91 weeks, study length 105 weeks): 5.91 mg/kg/day
TD50 (rat, strain Fischer 344, females, site: mammary gland, lesion: adenoma + fibroadenoma, dosed 91 weeks, study length 105 weeks): 3.32 mg/kg/day
